This assay has as its system MDA-MB-468 breast. The experiment in a line: NCI anticancer screen, dose series, 48 h.

We go through 27 molecules from PubChem BioAssay (NCI).

Molecules are shown by their SMILES.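 Cells were grown in 96-well plates and exposed to each compound for 48 hours at five concentrations; endpoints were interpolated linearly between bracketing concentrations, or set to the highest concentration if not reached. Here, GI50 denotes the concentration required for 50% inhibition of growth. Definition used: TGI = concentration required for complete inhibition of growth.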

Regarding `Cc1cc(NC(=O)NCc2ccc(N3C(N)=NC(N)=NC3(C)C)cc2)ccc1S(=O)(=O)F`, the GI50 is 7990 nM and the TGI was over 100000 nM.
For the molecule `Cc1ccc(NCCNCC(C)(C)O)c2c(=O)c3ccc(Cl)cc3sc12`, the GI50 is 1700 nM and the TGI turned out to be 3240 nM.
Regarding `Nc1ccc(CC[C@H]2CCC/C=C/[C@@H]3C[C@H](O)C[C@H]3[C@H](O)/C=C/C(=O)O2)cc1`, the GI50 is 10.6 nM and the TGI came out at 37.4 nM.
In the case of `CC[C@]12C=CCN3CC[C@]4(C(=C(C(=O)OC)C1)Nc1cc5c(cc14)[C@@H]1[C@H](O5)[C@@H](O)[C@@]4(CC)CC(C(=O)OC)=C5Nc6cc(O)ccc6[C@@]56CCN1C46)C32` (stereo partly drawn), the GI50 was 38.4 nM and the TGI was determined as 1510 nM.
With `COC(=O)c1c(C)nc(C)c2c1C(=O)C(Br)=C(NCc1ccccc1)C2=O`, the GI50 is 1110 nM and the TGI was determined as 2750 nM.
The corresponding values for `CCN(CC)c1ccc(/C=N/NC(=O)Cc2ccc(Nc3ccnc(C(F)(F)F)c3)cc2)c(O)c1` are 588 nM and over 60300 nM.
Take `CC1(C)CC(O)CC(C)(C)N1O`: the GI50 was over 100000 nM and the TGI was over 100000 nM.
On to `Nc1ncn([C@H]2CC(O)[C@@H](CO)S2)c(=O)n1` (stereo partly drawn), for which the GI50 was 5800 nM and the TGI is over 100000 nM.
`COc1ccc2nc3ccccc3c(NCCNCCO)c2c1`: the GI50 is 351 nM and the TGI stood at 1370 nM.
As for `COc1cc2c(c(OC)c1OC)-c1cc(I)c(O)cc1[C@@H](NC(C)=O)CC2`, the GI50 was 24.3 nM and the TGI came out at 71.5 nM.
For `CN(C)CCCN1c2ccccc2Sc2ccc(C(F)(F)F)cc21`, the GI50 was 1250 nM and the TGI was 2650 nM.
For `CC1(C)N=C(N)N=C(N)N1c1ccc(CCCC(=O)Nc2ccc(S(=O)(=O)F)cc2)cc1`, the GI50 was 3330 nM and the TGI was over 100000 nM.
Regarding `CN1C2C=CC(=O)C1C1C(=O)N(c3ccccc3)C(=O)C12` (stereo not drawn), the GI50 is 2450 nM and the TGI amounted to 9030 nM.
Turning to `COc1cc2ncn(-c3cc(OCc4ccccc4C(F)(F)F)c(C(N)=O)s3)c2cc1OC`, the GI50 is 61.9 nM and the TGI came to 857 nM.
As for `COc1cccc(C2CC(=O)Nc3c2c(C)nn3-c2nc3ccccc3[nH]2)c1OC` (stereo not drawn), the GI50 is 4110 nM and the TGI was determined as 32600 nM.
As to `O=C(/C=C/c1ccc(O)c(O)c1)N1CCN(c2ccc(Cl)cc2)CC1`, the GI50 was 2450 nM and the TGI came out at 13000 nM.
Regarding `CCn1cc(C(=O)O)c(=O)c2cc(F)c(N3CCN(S(=O)(=O)c4ccc(Cl)cc4Cl)CC3)cc21`, the GI50 was 1980 nM and the TGI is 5500 nM.
In the case of `COc1cc(C(=O)c2cnc(-c3c[nH]c4cccc(C)c34)[nH]2)cc(OC)c1OC`, the GI50 is 2.64 nM.
For the molecule `CCn1c(-c2nonc2N)nc2ccccc21`, the GI50 was over 14900 nM and the TGI is over 25000 nM.
In the same order, the values of `COc1cc(-c2nc(-c3ccccc3)c(-c3ccccc3)[nH]2)cc(OC)c1O` are 15200 nM and 37700 nM.
For the molecule `Clc1ccc2c(NCCNc3nc(N4CCOCC4)nc4ccccc34)ccnc2c1`, the GI50 is 1910 nM and the TGI turned out to be 4530 nM.
Take `O=c1c(I)c[nH]cc1I`: the GI50 was over 100000 nM and the TGI was over 100000 nM.
Take `Cc1cc(N2CCC(N3CCCC3)CC2)nc(/N=C(\N)Nc2ccc(Cl)c(Cl)c2)n1`: the GI50 is 1400 nM and the TGI is 2730 nM.
The corresponding values for `[O]=[Sn]([CH]1CCCCC1)[CH]1CCCCC1` are 97.7 nM and 250 nM.
As for `Nc1nc(SCc2ccccc2CCl)c2[nH]cnc2n1`, the GI50 is 11900 nM and the TGI was 30800 nM.
For `CCN(CC)CCOC(COc1cc(C)cc(C)c1)COc1cc(C)cc(C)c1`, the GI50 is 1740 nM and the TGI amounted to 3550 nM.
In the same order, the values of `CC[C@H](C)[C@H](NC(=O)C12C3C4C1C1C2C3C41NC)C(=O)N(C)[C@H](C[C@@H](OC(C)=O)c1nc(C(=O)N[C@@H](Cc2ccccc2)C[C@H](C)C(=O)OC)cs1)C(C)C` (stereo partly drawn) are 217 nM and over 5490 nM.
